Test [1] has as its system transformants of N. crassa that express HSVtk. Conditions: HSVtk-expressing transformants; cited from earlier work.
Test [2] deals with transformants of Cryptococcus neoformans that express HSVtk. The following applies: HSVtk-expressing transformants; cited from earlier work.
Test [3] deals with wild-type strain of B. cineria. In kind it is cell-based, Botrytis cineria.
The test system of test [4] is Aspergillus fumigatus transformants generated using pBHt2-tk (ChGPD-HSVtk). In kind it is cell-based.
Test [5] has as its system F. oxysporum transformants generated using pBHt2-tk (ChGPD-HSVtk). In kind it is cell-based, Fusarium oxysporum.
Test [6] deals with F. oxysporum O-685 transformants. It counts as cell-based, Fusarium oxysporum.
Test [7] has as its system Botrytis cineria transformants generated using pBHt2-tk (ChGPD-HSVtk). It counts as cell-based.

For the compound `O=c1[nH]c(=O)n([C@H]2C[C@H](O)[C@@H](CO)O2)cc1F` [F2dU, 5-fluoro-2′-deoxyuridine], the sensitivity of transformants result in test [1], in test [2], in test [4], in test [5] and in test [7] was “exhibited sensitivity” throughout. For the same compound, the “sensitivity of wild-type strain” value in test [3] was “exhibited noticeable sensitivity”. In addition, the “concentration required for significant growth inhibition” value in test [4] is 50 µM. Besides, in test [6], the “reduction of the number of transformants relative to that generated in the presence of 0 or 5 μM F2dU” value was in the range of 2 to 4 fold. Also, the “concentration sufficient to inhibit growth” value in test [7] is reported as 5 nM.

In the case of `Nc1nc(O)c2ncn(COC(CO)CO)c2n1` [Ganciclovir], the sensitivity of transformants entry in test [4] and in test [5] was “exhibited sensitivity” throughout. For the same compound, the “concentration failing to inhibit growth” value in test [7] is recorded as above 2 mM.

The values are drawn from patent publication US20050181509A1 (priority 2004, published 2005).
